Experimental data as given in patent publication US12409169B2, “Composition comprising clay mineral complex for prevention, alleviation, and treatment of inflammatory bowel disease, preparation method for composition, and method for alleviation and treatment for inflammatory bowel disease” (Korea Institute Of Geoscience And Mineral Resources, priority 2019, dated 2025).
Where “and” joins values, the source holds several entries; their conditions need not be identical. Equal values may be shown once. Read-outs that look alike come from different tables or passages of the source.

Legend:
[1] = pharmacokinetic analysis after oral administration in SD rats; type: in vivo; details: 10 mg/kg based on vactosertib
Description: In order to confirm a change in plasma concentration in actual oral administration of the bentonite/vactosertib complex, a pharmacokinetic analysis test was performed using SD rats of about 7 weeks of age. The existing vactosertib powder, an aqueous solution dissolved with the vactosertib powder in a pH 3 buffer solution, and the bentonite/vactosertib complex were used as samples and a dose was set to 10 mg/kg based on the drug (that is, vactosertib) amount. Each sample was orally administered in rats and then the blood was collected by time, and preprocessed to analyze a plasma drug concentration.

[2] = adsorption rate of vactosertib onto bentonite; type: physicochemical; details: vactosertib 0.4 mg/ml, bentonite 0.5 mg/mL, pH 1
Description: The adsorption rates of vactosertib and bentonite according to the pH of a solvent were evaluated. At this time, considering that the vactosertib was not dissolved in neutral, but stated to be dissolved in about 1 mg/mL from pH 3, a test was performed by setting a reaction pH to pH 1, pH 2, and pH 3. First, 10 mg/mL of the vactosertib was dissolved in a 0.1 N hydrochloric acid aqueous solution and diluted with a hydrochloric acid aqueous solution or a phosphate buffer solution (pH 1: 0.1 N hydrochloric acid aqueous solution, pH 2, pH 3: phosphate buffer solution) corresponding to each pH to adjust the concentration to 1 mg/mL. […] Thereafter, a drug concentration of a supernatant obtained by centrifugation (3,000 rpm, 5 minutes) was analyzed. Through this, the drug amount adsorbed onto the bentonite was indirectly calculated as shown in Equation 1 by removing the remaining drug amount in the supernatant from the entirely applied drug (vactosertib) to calculate an adsorption rate. […] In addition, a difference in adsorption rate according to the concentration of vactosertib was measured. […] In addition, a difference in adsorption rate according to an absolute concentration was measured.

[3] = tested on: ulcerative colitis mouse model induced with DSS; test: histopathological severity scores in ulcerative colitis mouse model induced with DSS; type: in vivo, C57BL/6 mice; details: DSS mice, Dunn's test
Description: Animal tests were performed to confirm anti-inflammatory, anti-crypt cell damage, anti-ulcer, anti-edema, and anti-fibrosis effects of a vactosertib/bentonite complex using a mouse model of ulcerative colitis as one of inflammatory bowel diseases. C57BL/6 mice were selected as test animals, and in order to induce ulcerative colitis, a cycle in which an inflammation inducing substance, DSS was added in drinking water and supplied for 7 days, and then normal drinking water was supplied for 14 days was repeated. Such an inflammation inducing cycle was repeated 3 times to induce chronic inflammation, ulcer and fibrous conditions in the large intestine. To test animal groups except for control groups, from 3 weeks after a first inflammation inducing cycle was elapsed, bentonite, vactosertib, or a vactosertib/bentonite complex was administered twice a day (10 am, 4 pm), 5 days a week, and for total 6 weeks. The bentonite per 1 kg of converted mouse weight was administered with 106.8 mg, the vactosertib was administered with 20.0 mg, and the complex was administered with 126.8 mg. At this time, as the vactosertib/bentonite complex, the complex prepared in Test Example 5 was used. For each test group used in ulcerative colitis animal tests, inflammation inducing substances, test substances, doses of the test substances, and the number of test animals were shown in Table 7 below.
C57BL/6 mice used in the test were supplied from the Orient Bio Gapyeong Center (699-13, Mokdong-ri, Buk-yeon, Gapyeong-gun, Gyeonggi-do), and about 6-week-old during obtaining. For about 7 days after obtaining, the rats were quarantined and purified and then healthy animals were used for the test. When the induced material was administered, the test animals were about 8-week-old, and 52 mice were used. The test animals were bred in the 2nd floor of Clean Animal Room, Bioscience Research Institute, Research Institute of Medical Science at Inha University, and circulated in at least 10 times/hour and bred under conditions of a temperature of 22-4° C., relative humidity of 50±20%, and illuminance of 150 to 300 Lux of lighting on for 12 hours (lighting: 08:00 to 20:00). A radiation solid feed (FeedLab GMO Free Rodent Diet GF2005) for rodents was free-taken using a feeder and water sterilized by an ultraviolet-ray flowing water sterilizer and high-pressure vapor after reverse osmosis was free-taken using a polysulfonate-made drinking water bottle (300 ml).
In order to induce ulcerative colitis, 2% DSS was added in drinking water of mice and continuously supplied for first 7 days of every test cycle (3 weeks). The test substances were orally administered 2 times a day, 5 days a week, and for a total of 6 weeks at the same time of second DSS induction (FIG. 14). […]
In order to evaluate a treatment effect of test substances on ulcerative colitis, after the end of the test, the animal was anesthetized, opened, and bled and then a histopathological test was performed for each individual. Histopathological findings were subdivided and scored into severity changes of inflammation, crypt cell damage, ulcer, edema, and fibrosis as shown in Table 8 below. […]
Statistical analysis was performed using Graphpad Prism version 8.01, and a minimum unit of significance was set to p<0.05. Since all measured histopathological indexes were nonparametric data, the indexes were represented by a median, 25% to 75% values (in the box), and minimum-maximum values (both ends) in the graph (FIGS. 15 to 20). […]

interleukin 6 (IL-6) = test: immunohistochemical IL-6 staining of large intestine tissue in DSS ulcerative colitis mouse model; type: in vivo, C57BL/6 mice; details: DSS 2% mice
Description: Animal tests were performed to confirm anti-inflammatory, anti-crypt cell damage, anti-ulcer, anti-edema, and anti-fibrosis effects of a vactosertib/bentonite complex using a mouse model of ulcerative colitis as one of inflammatory bowel diseases. C57BL/6 mice were selected as test animals, and in order to induce ulcerative colitis, a cycle in which an inflammation inducing substance, DSS was added in drinking water and supplied for 7 days, and then normal drinking water was supplied for 14 days was repeated. Such an inflammation inducing cycle was repeated 3 times to induce chronic inflammation, ulcer and fibrous conditions in the large intestine. […]
In order to observe an immunohistochemical change of a large intestine tissue, a tissue fixed to a 10% neutral buffer formalin solution was sliced, attached to a coating slide, and deparaffinized, and then stained, and IHC of reacting with antibodies IL-6 (Interleukin-6), α-SMA ((α-smooth muscle actin), and TGF-β (transforming growth factor beta) on each slide was requested to an external institute (Notus) and the test was performed. In an individual-specific tissue slide, three constant zones were specified and imaged 100 times, a stained portion to the total area was measured, and a mean value was calculated (Zen 2.3 blue edition, Carl Zeiss, Germany). […]

[4] = elution test (drug release through semi-permeable membrane); type: physicochemical
Description: An elution test of vactosertib was performed to confirm a change in which the vactosertib was adsorbed onto bentonite and then released. At this time, in order to predict the drug release from the upper digestive tract and the lower digestive tract, the elution was performed under different pH conditions. To this end, the test was performed by using a 0.1 N HCl solution (pH 1.2), a 50 mM acetate buffer solution (pH 4.5), and a 50 mM phosphate buffer solution (pH 7.4) as eluates, respectively. At this time, in all the eluates, Tween80 was dissolved and used at a concentration of 0.1% to impart a sufficient elution environment of vactosertib. The vactosertib powder and the bentonite/vactosertib complex were formed to a dispersion to be 1 mg/mL based on the vactosertib concentration and 0.3 mL thereof was sealed in a semi-permeable membrane and then put in 30 mL of each eluate to perform the elution. Thereafter, each eluate was collected by 0.2 mL for each predetermined time, a drug concentration was analyzed to compare elution rates.

Row | AUCinf [1] [µg·min/mL] | AUClast [1] [µg·min/mL] | Cmax [1] [ng/mL] | Tmax [1] [min] | Tmax ([1]; listed as vactosertib aqueous solution) | half-life ([1]; SD, rat, plasma, po, 10 mg/kg) [min] | Cmax ([1]; SD, rat, plasma, po, 10 mg/kg, read-out: maximum plasma concentration Cmax) [ng/mL] | Adsorption rate [2] [%] | elution rate ([4]; 0.1 N HCl solution (pH 1.2), 0.1% Tween80) | elution rate ([4]; at a higher pH than pH 1.2) | t1/2 [1] [min] | SMILES | median of inflammation index compared with positive control group (G2) ([3]; FIG. 15) | median of crypt cell damage index compared with positive control group (G2) ([3]; FIG. 16) | median of ulcer index compared with positive control group (G2) ([3]; FIG. 17) | median of fibrosis index compared with positive control group (G2) ([3]; FIG. 19) | median of summed severity scores (except fibrosis) compared with positive control group (G2) ([3]; FIG. 20) | reduction of IL-6 staining area as compared with G2 group (interleukin 6 (IL-6)) [%]
1 | 111.97 ± 33.28 | 111.73 ± 33.05 | 2770 ± 550 | 15 ± 0 | 15 min and 15 ± 0 min | 45.9 ± 6.84 | 2770 ± 550 | – | – | – | – | Cc1cccc(-c2[nH]c(CNc3ccccc3F)nc2-c2ccc3ncnn3c2)n1 [Vactosertib aqueaous solution] | – | – | – | – | – | –
2 | – | – | – | – | – | – | – | 28.0 ± 0.8 | – | – | – | Cc1cccc(-c2[nH]c(CNc3ccccc3F)nc2-c2ccc3ncnn3c2)n1 [vactosertib, N-((4-([1,2,4]triazolo[1,5-a]pyridine-6-yl)-5-(6-methylpyridin-2-yl)-1H-imidazol-2-yl)methy 1)-2-fluoroaniline] | slightly low | low in a median of a crypt cell damage index, but had no statistical significance | low in a median of an ulcer index, but had no statistical significance | slightly low | low in a median of an ulcer index, but had no statistical significance | 23.0
3 | 45.46 ± 27.67 | 44.65 ± 28.60 | 610 ± 570 | 67.5 ± 75 | – | – | – | – | rapidly eluted | significantly decreased | 51.96 ± 21.93 | Cc1cccc(-c2[nH]c(CNc3ccccc3F)nc2-c2ccc3ncnn3c2)n1 [Vactosertib powder] | – | – | – | – | – | –
